For data set [1], the target named is T1, 5-hydroxytryptamine receptor 1A (Homo sapiens) (UniProt P08908).
T1 sequence (whole entry): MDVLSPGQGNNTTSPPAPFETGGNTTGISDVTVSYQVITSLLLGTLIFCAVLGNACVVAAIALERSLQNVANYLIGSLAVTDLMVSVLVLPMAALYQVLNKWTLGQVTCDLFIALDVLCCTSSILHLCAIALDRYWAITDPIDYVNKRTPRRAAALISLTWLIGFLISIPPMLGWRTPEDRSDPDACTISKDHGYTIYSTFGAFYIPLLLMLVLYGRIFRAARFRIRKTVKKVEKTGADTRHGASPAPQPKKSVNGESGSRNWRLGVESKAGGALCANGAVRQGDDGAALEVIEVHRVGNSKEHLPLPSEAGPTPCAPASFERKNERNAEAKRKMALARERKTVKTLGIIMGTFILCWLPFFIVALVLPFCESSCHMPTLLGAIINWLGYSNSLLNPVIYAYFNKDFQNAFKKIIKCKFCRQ
Kind of data set: Displacement of [3H]WAY100635 from human 5-HT1AR expressed in CHO cell membranes at 10 uM incubated for 90 mins under dark condition by microbeta scintillation counting method relative to control. Background: In a radioligand displacement assay an active substance lowers the binding of a labelled ligand.

For data set [2], the target named is 5-hydroxytryptamine receptor 6 (Homo sapiens) (UniProt P50406). Kind of data set: Displacement of [3H]LSD from human 5-HT6 receptor expressed in HEK cell membranes at 10 uM incubated for 90 mins under dark condition by microbeta scintillation counting method relative to control. To be noted: HEK293.
Chain of 5-hydroxytryptamine receptor 6 (Homo sapiens) (P50406 whole entry): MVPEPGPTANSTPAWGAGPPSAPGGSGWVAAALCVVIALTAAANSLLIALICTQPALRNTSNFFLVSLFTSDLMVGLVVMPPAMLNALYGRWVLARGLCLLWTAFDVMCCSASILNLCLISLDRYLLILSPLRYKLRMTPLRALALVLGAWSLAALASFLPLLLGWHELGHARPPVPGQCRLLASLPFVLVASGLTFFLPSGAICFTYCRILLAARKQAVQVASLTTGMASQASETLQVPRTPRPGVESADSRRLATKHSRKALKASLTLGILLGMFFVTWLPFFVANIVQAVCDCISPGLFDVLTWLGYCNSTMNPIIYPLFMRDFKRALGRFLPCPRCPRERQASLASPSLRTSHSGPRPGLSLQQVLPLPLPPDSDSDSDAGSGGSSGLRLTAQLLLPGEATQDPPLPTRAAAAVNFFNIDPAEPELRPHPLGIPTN
Data set [3] has as its target 5-hydroxytryptamine receptor 7 (Homo sapiens) (UniProt P34969). Nature of the data set: Displacement of [3H]LSD from human 5-HT7A receptor expressed in HEK cell membranes at 10 uM incubated for 90 mins under dark condition by microbeta scintillation counting method relative to control. The note with it: HEK293.
In data set [4] the target is Adenosine receptor A2a (Homo sapiens, UniProt P29274). Kind of data set: Displacement of [3 H]2-[p-(2-carboxyethyl)phenyl-ethylamino]-5'-N-ethylcarboxamidoadenosine from recombinant human adenosine receptor A2A expressed in HEK293 cell membranes after 60 mins by liquid scintillation counting method.
Chain of Adenosine receptor A2a (P29274 whole entry): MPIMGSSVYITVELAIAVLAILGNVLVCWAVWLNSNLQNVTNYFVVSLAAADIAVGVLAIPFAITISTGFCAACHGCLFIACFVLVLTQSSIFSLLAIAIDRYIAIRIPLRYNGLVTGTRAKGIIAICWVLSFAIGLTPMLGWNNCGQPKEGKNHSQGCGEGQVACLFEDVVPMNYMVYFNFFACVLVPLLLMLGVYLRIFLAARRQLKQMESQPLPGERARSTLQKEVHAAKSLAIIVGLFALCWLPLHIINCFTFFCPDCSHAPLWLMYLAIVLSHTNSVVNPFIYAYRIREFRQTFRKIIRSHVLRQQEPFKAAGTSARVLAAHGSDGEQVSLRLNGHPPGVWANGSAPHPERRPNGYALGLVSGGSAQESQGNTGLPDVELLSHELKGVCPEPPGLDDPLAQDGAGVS
The target of data set [5] is T2, Adenosine receptor A1 (Homo sapiens) (UniProt P30542).
T2 sequence (whole entry): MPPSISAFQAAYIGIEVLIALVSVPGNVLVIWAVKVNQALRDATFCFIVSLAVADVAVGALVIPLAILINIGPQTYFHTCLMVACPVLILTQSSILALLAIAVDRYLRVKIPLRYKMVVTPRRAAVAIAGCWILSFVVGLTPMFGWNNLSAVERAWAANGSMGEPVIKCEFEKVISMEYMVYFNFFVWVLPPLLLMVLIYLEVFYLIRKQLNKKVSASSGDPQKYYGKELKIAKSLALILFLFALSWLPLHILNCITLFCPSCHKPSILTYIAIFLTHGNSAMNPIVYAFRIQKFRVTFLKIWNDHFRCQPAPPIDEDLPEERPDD
Kind of data set: Agonist activity at recombinant human A1AR expressed in CHO cells assessed as inhibition of forskolin-stimulated cAMP accumulation at 10 uM after 15 mins relative to N6-cyclopentyladenosine. The class given is functional, cell-based. Background: Changes in cAMP serve as a functional read-out for many G protein-coupled receptors.

Data set [6] addresses Sodium-dependent dopamine transporter (Homo sapiens, UniProt Q01959). Nature of the data set: Inhibition of human dopamine transporter expressed in HEK293 cells assessed as inhibition of dopamine uptake measured after 30 mins by fluorescence analysis. The class given is cell-based.
Data set [7] has as its target T3, Adenosine receptor A3 (Mus musculus) (UniProt Q61618).
T3 sequence (whole entry): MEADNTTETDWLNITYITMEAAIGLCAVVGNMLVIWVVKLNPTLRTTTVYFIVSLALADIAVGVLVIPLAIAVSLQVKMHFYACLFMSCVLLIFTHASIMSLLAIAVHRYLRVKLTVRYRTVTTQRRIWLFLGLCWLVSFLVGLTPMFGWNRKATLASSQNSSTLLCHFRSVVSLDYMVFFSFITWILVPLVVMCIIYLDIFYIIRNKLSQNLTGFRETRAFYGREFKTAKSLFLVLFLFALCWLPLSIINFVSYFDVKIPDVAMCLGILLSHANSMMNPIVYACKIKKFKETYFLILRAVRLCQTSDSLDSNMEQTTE
Kind of data set: Agonist activity at recombinant mouse A3AR expressed in HEK293 cells assessed as inhibition of forskolin-stimulated cAMP accumulation at 10 uM after 15 mins relative to adenosine-5'-N-ethyluronamide. In kind it is functional, cell-based.

In data set [8] the target is 5-hydroxytryptamine receptor 2B (Homo sapiens, UniProt P41595). The class given is functional, cell-based, HEK293.
Chain of 5-hydroxytryptamine receptor 2B (P41595 whole entry): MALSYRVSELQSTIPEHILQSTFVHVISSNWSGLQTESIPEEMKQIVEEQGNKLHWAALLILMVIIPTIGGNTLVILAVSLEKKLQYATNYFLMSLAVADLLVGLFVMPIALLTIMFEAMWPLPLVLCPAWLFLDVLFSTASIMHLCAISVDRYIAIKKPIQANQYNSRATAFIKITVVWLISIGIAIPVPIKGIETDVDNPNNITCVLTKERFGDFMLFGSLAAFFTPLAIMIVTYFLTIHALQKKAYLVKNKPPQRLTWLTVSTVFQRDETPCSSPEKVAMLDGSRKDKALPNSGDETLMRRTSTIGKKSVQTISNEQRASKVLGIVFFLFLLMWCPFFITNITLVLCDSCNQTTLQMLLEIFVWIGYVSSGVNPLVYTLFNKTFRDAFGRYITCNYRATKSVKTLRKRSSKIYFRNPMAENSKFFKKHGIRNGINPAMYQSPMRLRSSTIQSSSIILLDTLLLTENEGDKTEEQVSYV
The nature of data set [9]: Half life of compound in fasted state simulated gastric fluid at pH 1.6. In kind it is ADME, tissue-based, Stomach. To be noted: simulated gi fluid.
A short description of data set [10]: Half life of compound in fasted state simulated intestinal fluid at pH 6.5. The class given is ADME. The note with it: simulated gi fluid.
Data set [11] can be described thus: Metabolic stability in human plasma assessed as compound remaining measured after 120 mins. In kind it is ADME, cell-free. To be noted: read-out: Stability.
Data set [12] in a line: Metabolic stability in rat plasma assessed as compound remaining measured after 120 mins. The class given is ADME, cell-free. The note with it: 2 h.
The nature of data set [13]: Metabolic stability in mouse plasma assessed as compound remaining measured after 120 mins. In kind it is ADME, cell-free. The note with it: 2 h.
A short description of data set [14]: Apparent permeability across apical side to basolateral side in human Caco2 cells. To be noted: caco-2. In kind it is ADME, cell-based. On the technique in general: Caco-2 monolayers are a common model of the intestinal barrier.
The nature of data set [15]: Apparent permeability across basolateral side to apical side in human Caco2 cells. The class given is ADME, cell-based. To be noted: caco-2.
For data set [16], the target named is Cytochrome P450 2C9 (Homo sapiens, UniProt P11712). Nature of the data set: Inhibition of CYP2C9 (unknown origin). In kind it is ADME.
Chain of Cytochrome P450 2C9 (P11712 whole entry): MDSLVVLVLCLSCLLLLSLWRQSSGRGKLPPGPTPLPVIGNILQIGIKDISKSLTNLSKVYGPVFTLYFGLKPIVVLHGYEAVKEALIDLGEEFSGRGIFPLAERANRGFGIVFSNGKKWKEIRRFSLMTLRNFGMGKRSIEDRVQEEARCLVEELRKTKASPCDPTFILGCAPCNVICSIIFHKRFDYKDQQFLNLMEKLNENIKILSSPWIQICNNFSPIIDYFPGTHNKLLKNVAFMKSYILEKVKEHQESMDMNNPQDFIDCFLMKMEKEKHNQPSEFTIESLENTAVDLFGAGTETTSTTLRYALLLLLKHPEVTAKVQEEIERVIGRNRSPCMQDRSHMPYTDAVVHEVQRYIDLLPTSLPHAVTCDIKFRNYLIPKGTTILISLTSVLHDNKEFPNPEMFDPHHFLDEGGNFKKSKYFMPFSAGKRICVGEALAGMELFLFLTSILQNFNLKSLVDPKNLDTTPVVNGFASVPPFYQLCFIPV
In data set [17] the target is Cytochrome P450 2C19 (Homo sapiens, UniProt P33261). Kind of data set: Inhibition of CYP2C19 (unknown origin). In kind it is ADME.
Chain of Cytochrome P450 2C19 (P33261 whole entry): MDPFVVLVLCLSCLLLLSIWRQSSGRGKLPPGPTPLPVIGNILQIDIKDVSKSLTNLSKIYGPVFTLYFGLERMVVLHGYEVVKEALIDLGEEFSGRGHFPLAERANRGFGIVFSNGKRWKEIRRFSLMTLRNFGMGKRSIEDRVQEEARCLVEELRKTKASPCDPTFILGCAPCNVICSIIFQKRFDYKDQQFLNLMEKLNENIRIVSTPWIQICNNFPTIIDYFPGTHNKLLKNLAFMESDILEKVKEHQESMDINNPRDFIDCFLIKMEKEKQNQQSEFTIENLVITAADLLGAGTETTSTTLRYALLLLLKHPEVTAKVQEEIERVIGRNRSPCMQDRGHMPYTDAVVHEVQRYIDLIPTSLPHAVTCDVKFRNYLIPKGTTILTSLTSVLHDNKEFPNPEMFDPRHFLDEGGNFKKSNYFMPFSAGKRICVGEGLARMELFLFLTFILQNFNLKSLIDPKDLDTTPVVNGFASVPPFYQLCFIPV
The target of data set [18] is Cytochrome P450 2D6 (Homo sapiens, UniProt P10635). Nature of the data set: Inhibition of CYP2D6 (unknown origin). In kind it is ADME.
Chain of Cytochrome P450 2D6 (P10635 whole entry): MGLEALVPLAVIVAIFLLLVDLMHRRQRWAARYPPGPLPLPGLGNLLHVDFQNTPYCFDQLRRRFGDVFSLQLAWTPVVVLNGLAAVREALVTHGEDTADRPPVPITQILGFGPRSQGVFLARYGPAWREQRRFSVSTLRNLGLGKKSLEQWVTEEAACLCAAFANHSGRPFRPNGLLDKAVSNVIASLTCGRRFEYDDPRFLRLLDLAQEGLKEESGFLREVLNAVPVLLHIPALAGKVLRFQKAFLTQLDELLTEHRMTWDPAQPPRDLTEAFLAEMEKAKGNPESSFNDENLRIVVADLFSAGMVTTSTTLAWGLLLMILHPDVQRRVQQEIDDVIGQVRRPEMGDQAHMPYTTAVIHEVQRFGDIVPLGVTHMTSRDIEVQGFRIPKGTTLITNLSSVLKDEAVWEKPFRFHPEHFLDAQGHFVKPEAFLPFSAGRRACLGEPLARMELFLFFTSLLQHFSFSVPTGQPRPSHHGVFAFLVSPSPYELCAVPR
In data set [19] the target is Cytochrome P450 3A4 (Homo sapiens, UniProt P08684). Nature of the data set: Inhibition of CYP3A4 (unknown origin). The class given is ADME.
Chain of Cytochrome P450 3A4 (P08684 whole entry): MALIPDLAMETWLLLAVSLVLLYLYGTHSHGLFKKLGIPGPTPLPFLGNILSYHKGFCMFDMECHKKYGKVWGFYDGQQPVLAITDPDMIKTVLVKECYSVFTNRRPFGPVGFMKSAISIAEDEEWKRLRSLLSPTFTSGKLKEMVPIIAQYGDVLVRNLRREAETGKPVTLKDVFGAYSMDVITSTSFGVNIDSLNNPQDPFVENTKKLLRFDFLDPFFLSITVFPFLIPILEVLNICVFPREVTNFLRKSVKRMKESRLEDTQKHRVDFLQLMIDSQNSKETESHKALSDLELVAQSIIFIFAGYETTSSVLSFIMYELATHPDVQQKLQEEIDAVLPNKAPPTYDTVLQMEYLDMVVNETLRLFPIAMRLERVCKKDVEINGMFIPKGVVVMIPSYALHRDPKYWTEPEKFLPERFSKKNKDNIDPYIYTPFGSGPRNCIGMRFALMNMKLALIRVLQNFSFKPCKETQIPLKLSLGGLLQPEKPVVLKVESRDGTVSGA
Data set [20] in a line: Half life in human liver microsomes. In kind it is ADME.
Data set [21] can be described thus: Half life in rat liver microsomes. In kind it is ADME.
The nature of data set [22]: Half life in mouse liver microsomes. The class given is ADME.
A short description of data set [23]: Intrinsic clearance in human liver microsomes. In kind it is ADME.
Data set [24] in a line: Metabolic stability in human liver microsomes assessed as compound remaining measured after 1 hr in presence of cofactor. The class given is ADME.
Data set [25] is described as follows: Growth inhibition of human HepG2 cells at 30 uM. The class given is cell-based. To be noted: read-out: GI.
Data set [26] can be described thus: Stability of compound in pH 1.6 fasted state simulated gastric fluid assessed as compound remaining measured after 2 hrs. To be noted: read-out: Stability. In kind it is ADME.
Data set [27] in a line: Half life in Sprague-Dawley rat at 1 mg/kg, iv administered as single dose. The class given is ADME, organism-based. To be noted: in vivo.
The nature of data set [28]: Initial plasma concentration in Sprague-Dawley rat at 1 mg/kg, iv administered as single dose. The class given is ADME, organism-based. The note with it: in vivo.
Data set [29] can be described thus: Volume of distribution at steady state in Sprague-Dawley rat at 1 mg/kg, iv administered as single dose. The class given is ADME, organism-based. To be noted: in vivo.
Data set [30] is described as follows: Stability of compound in pH 6.5 fasted state simulated intestinal fluid assessed as compound remaining measured after 2 hrs. The class given is ADME. The note with it: simulated gi fluid, pH 6.5, 2 h.
Data set [31] addresses 5-hydroxytryptamine receptor 2A (Homo sapiens, UniProt P28223). Kind of data set: Agonist activity at human 5-HT2AR expressed in Flp-In HEK cells assessed as calcium mobilization at 10 uM measured for 2 mins by Fluo-4 dye based FLIPR assay. To be noted: hek293, 2 min. In kind it is cell-based.

The values that follow come from ChEMBL document CHEMBL3862033 (J Med Chem, 2016).

For orientation: Ki means a dissociation constant, usually derived from enzyme kinetics or from competition with a known ligand. A word on the Papp: it is a coefficient for how fast a substance crosses the barrier. What is called IC50 is the point on the concentration scale where inhibition reaches its midpoint. Low readings indicate greater potency, high ones weaker potency. Usually Vdss stands for the apparent volume that relates the amount in the body to the concentration in plasma or blood. Lower therefore signals confinement near the circulation.

Chain of 5-hydroxytryptamine receptor 7 (Homo sapiens) (P34969 whole entry): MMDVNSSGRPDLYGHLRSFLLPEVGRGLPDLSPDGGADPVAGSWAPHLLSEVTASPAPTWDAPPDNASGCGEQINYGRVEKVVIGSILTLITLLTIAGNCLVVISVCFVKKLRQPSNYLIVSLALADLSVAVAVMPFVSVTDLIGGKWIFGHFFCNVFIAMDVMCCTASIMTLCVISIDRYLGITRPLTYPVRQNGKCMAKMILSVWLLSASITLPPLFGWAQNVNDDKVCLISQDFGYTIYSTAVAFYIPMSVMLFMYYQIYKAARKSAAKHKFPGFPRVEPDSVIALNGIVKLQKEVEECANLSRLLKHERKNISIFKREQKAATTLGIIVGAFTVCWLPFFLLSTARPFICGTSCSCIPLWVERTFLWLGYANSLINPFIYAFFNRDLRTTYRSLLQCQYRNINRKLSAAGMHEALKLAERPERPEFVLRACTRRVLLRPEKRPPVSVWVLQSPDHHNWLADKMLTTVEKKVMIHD
Chain of Sodium-dependent dopamine transporter (Q01959 whole entry): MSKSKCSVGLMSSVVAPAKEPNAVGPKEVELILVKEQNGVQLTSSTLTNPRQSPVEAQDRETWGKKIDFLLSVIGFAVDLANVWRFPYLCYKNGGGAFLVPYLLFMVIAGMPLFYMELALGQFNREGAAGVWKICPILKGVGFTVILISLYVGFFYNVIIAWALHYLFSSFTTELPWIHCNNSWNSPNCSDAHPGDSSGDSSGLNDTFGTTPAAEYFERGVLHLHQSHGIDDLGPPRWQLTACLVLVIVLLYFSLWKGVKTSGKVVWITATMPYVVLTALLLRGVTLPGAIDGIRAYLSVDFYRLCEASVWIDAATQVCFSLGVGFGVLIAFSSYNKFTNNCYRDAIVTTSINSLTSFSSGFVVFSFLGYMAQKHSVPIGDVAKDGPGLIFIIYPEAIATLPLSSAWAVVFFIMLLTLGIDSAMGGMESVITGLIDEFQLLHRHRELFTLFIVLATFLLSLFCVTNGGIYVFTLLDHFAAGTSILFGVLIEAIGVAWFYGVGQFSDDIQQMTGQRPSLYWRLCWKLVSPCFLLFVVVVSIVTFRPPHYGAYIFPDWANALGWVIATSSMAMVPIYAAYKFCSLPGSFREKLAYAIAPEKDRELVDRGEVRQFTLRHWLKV
Chain of 5-hydroxytryptamine receptor 2A (P28223 whole entry): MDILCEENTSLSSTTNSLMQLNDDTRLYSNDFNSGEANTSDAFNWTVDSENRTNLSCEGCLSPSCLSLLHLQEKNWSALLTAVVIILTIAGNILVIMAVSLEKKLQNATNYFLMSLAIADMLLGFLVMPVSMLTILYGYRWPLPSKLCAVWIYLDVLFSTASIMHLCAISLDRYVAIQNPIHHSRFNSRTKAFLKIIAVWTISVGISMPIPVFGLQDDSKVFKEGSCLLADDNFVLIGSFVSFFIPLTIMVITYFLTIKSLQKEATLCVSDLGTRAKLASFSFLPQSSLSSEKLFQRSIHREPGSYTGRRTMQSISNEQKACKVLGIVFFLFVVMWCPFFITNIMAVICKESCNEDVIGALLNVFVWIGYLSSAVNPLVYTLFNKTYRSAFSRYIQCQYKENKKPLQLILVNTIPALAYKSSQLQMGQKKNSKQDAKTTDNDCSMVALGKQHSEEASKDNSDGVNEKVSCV

For the compound `OC[C@@]12C[C@@H]1[C@@H](n1cnc3c(NC(C4CC4)C4CC4)nc(Cl)nc31)[C@H](O)[C@@H]2O`, the inhibition in [1], in [2] and in data set [3] was less than 50% throughout. The Ki in data set [4] was determined as 2.2 µM; in data set [6], 4.8 µM. Moreover, the Imax in data set [5] amounted to 104%.
On to `CNC(=O)[C@@]12C[C@@H]1[C@@H](n1cnc3c(NC(C4CC4)C4CC4)nc(Cl)nc31)[C@H](O)[C@@H]2O`, for which the inhibition in data set [1], in data set [2] and in [3] was less than 50% throughout. Also, the Ki was 4.32 µM in [4] and 0.0044 µM in [8]. For the same compound, in [7], the Imax worked out at 96.7%. Further, the t1/2 is 2.2 h in [9]; more than 8 h in data set [10]; 2.17 h in data set [20]; more than 2.33 h in data set [21]; more than 2.42 h in data set [22]; 2.89 h in [27]. The remaining at 2 h in data set [11] is 100 to 104%; in data set [26] it was 50%. For the same compound, the Stability in data set [12] was found to be 88.7%; in data set [13], 95%; in [24], 87%. Besides, the Papp in data set [14] was determined as 4.73 ×10⁻⁶ cm/s; in data set [15] it was 46.21 ×10⁻⁶ cm/s. In addition, the IC50 in data set [16], in data set [17], in [18] and in [19] was more than 30 µM each time. The compound further gave a CLH in [23] of 1.75 µL/min/mg. Besides, in [25], the inhibition at 30 µM is less than 30%. The C0 in data set [28] came out at 1070 ng/mL. This compound gave a volume of distribution (Vdss) in data set [29] of 3.16 L/kg.
For the compound `COC(=O)[C@@]12C[C@@H]1[C@@H](n1cnc3c(NC(C4CC4)C4CC4)nc(Cl)nc31)[C@H](O)[C@@H]2O`, the inhibition in data set [1], in [2] and in data set [3] was less than 50% each time. Further, in data set [7], the Imax turned out to be 41.4%. The compound further showed a Ki in [8] of 0.0032 µM. Besides, the t1/2 is 2.08 h in data set [9]; more than 8 h in [10]; more than 2.33 h in [20]; more than 2.33 h in [21]; more than 2.33 h in [22]; 3.56 h in [27]. Further, the remaining at 2 h in data set [11] is 95.3 to 100%; in data set [26], 50%. The Stability in data set [12] is reported as 70.9%; in [13] it was 61%; in data set [24], 94%; in data set [30] it was 97%. For the same compound, the Papp is 18.47 ×10⁻⁶ cm/s in [14] and 30.59 ×10⁻⁶ cm/s in [15]. Also, inhibition in data set [16] was half-maximal at 20.1 µM (IC50). The CLH in data set [23] came out at 0.77 µL/min/mg. In addition, the inhibition at 30 µM in data set [25] was less than 30%. Besides, the C0 in data set [28] is 349 ng/mL. Also, in data set [29], the Vdss was found to be 4.62 L/kg.
Regarding `CCOC(=O)[C@@]12C[C@@H]1[C@@H](n1cnc3c(NC(C4CC4)C4CC4)nc(Cl)nc31)[C@H](O)[C@@H]2O`, the inhibition in data set [1], in [2] and in data set [3] was less than 50% throughout. The Imax was found to be 89% in [5] and 26.3% in [7]. The compound also registered a Ki in data set [8] of 0.0018 µM. The Activity in data set [31] was more than 10%.
